Results from patent publication US4010161A, “Piperazinoethyl-N-(2,3-dimethyl-5-oxo-1-phenyl-3Δ-pyrazolin- 4-yl)carbamates” (Synthelabo, priority 1973, dated 1977).
Structures can show the parent of a compound that is named as a salt.

Key:
Solubility in water = format: physicochemical
[1] = Acute toxicity, 50% lethal dose in mice; details: mouse, in vivo, po; mice (CD1 strain, both sexes), per os; 50% lethal dose calculated graphically
Description: The experiments were carried out on mice of the CDl strain, of both sexes, and the 50% lethal doses were calculated graphically.

[2] = tested on: pain induced, in CDl mice, by the intraperitoneal injection of acetic acid; test: Koster test: pain induced by intraperitoneal injection of acetic acid; format: in vivo; details: Mus musculus, po, per os, AD50 = 50% active dose
From the text: (§1) This effect was investigated in accordance with three conventional experimental procedures.
a. Effect against pain induced, in CDl mice, by the intraperitoneal injection of acetic acid, using the method described by Koster and colleagues (Fed. Proc., 1959, 18, 42) and modified by Peterfalvi, Branceni and colleagues, (Med. Pharmacol. exp., 1966, 15, 254).

[3] = tested on: oedema induced by carragenine in SJ rats; test: Oedema induced by carragenine (anti-inflammatory effect); format: in vivo; details: Rattus norvegicus, po, per os, AD40 = 40% active dose, read-out: Inflammation induced by carragenine AD40
From the text: The test of oedema induced by carragenine in SJ rats, in accordance with the technique of Winter and colleagues, (Proc. Soc. exp. Biol. Med., 1962, III, 544) was used. The effects of the compounds of the invention are markedly lower than that of the reference product.

CD1 mice, tail-pinching = test: Haffner tail-pinching test; format: in vivo; details: Mus musculus, po, per os, AD50 = 50% active dose
From the text: as §1
c. Tail-pinching test on CD1 mice, using the method of Haffner (Deutsch. med. Wachr., 1959, 55, 731).

Row | SMILES | solubility in water (Solubility in water) | LD50 [1] [mg/kg] | ED50 [2] [mg/kg] | ED40 [3] [mg/kg] | ED50 (CD1 mice, tail-pinching) [mg/kg]
1 | Cc1c(NC(=O)OCCN2CCN(c3cccc(Cl)c3)CC2)c(=O)n(-c2ccccc2)n1C [2-(4-m-chlorophenyl-piperazino)-ethyl N-(2,3-dimethyl-5-oxo-1-phenyl-3Δ-pyrazolin-4-yl)-carbamate tartrate] | very soluble in water | – | – | – | –
2 | Cc1c(NC(=O)OCCN2CCN(c3cccc(SC(F)(F)F)c3)CC2)c(=O)n(-c2ccccc2)n1C [SLB-208, 2-(4-m-Trifluoromethylthiophenyl-piperazino)-ethyl N-(2,3-dimethyl-5-oxo-1-phenyl-3Δ-pyrazolin-4-yl)-carbamate] | – | > 1000 | 17 | 76 | –
3 | Cc1c(NC(=O)OCCN2CCN(c3cccc(Cl)c3)CC2)c(=O)n(-c2ccccc2)n1C [SLB-207, 2-(4-m-Chlorophenyl-piperazino)-ethyl N-(2,3-dimethyl-5-oxo-1-phenyl-3Δ-pyrazolin-4-yl)-carbamate] | – | 990 | 8 | 100 | 10
4 | Cc1c(NC(=O)OCCN2CCN(c3ccccc3)CC2)c(=O)n(-c2ccccc2)n1C [SLB-197, 2-(4-Phenyl-piperazino)-ethyl N-(2,3-dimethyl-5-oxo-1-phenyl-3Δ-pyrazolin-4-yl)-carbamate] | – | 400 | 30 | > 100 | –
5 | Cc1c(NC(=O)OCCN(C)C)c(=O)n(-c2ccccc2)n1C [SLB-215, 2-Dimethylamino-ethyl N-(2,3-dimethyl-5-oxo-1-phenyl-3Δ-pyrazolin-4-yl)-carbamate] | very soluble in water | > 1000 | 60 | > 100 | –
6 | Cc1ccc(N2CCN(CCOC(=O)Nc3c(C)n(C)n(-c4ccccc4)c3=O)CC2)cc1 [SLB-209, 2-(4-p-Tolyl-piperazino)-ethyl N-(2,3-dimethyl-5-oxo-1-phenyl-3Δ-pyrazolin-4-yl)-carbamate] | – | 410 | 25 | > 100 | 15
7 | Cc1c(NC(=O)OCCN2CCN(c3cccc(C(F)(F)F)c3)CC2)c(=O)n(-c2ccccc2)n1C [SLB-186, 2-(4-m-Trifluoromethylphenyl-piperazino)-ethyl N-(2,3-dimethyl-5-oxo-1-phenyl-3Δ-pyrazolin-4-yl)-carbamate hydrochloride] | – | 2000 | 8 | 100 | 10
8 | Cc1c(N(C)C)c(=O)n(-c2ccccc2)n1C [Aminopyrine, reference compound] | – | – | 40 | 50 | 75
